Patent US20100234363A1, “HETEROCYCLIC DERIVATIVE HAVING INHIBITORY ACTIVITY ON TYPE-I 11 DATA-HYDROXYSTEROID DEHYDROGENASE” (INSTITUTE OF MEDICINAL MOLECULAR DESIGN, INC., priority 2007, published 2010)

Key:
[1] = biological target: Human 11β-HSD1 (Homo sapiens, UniProt P28845); assay: Evaluation of compound against human 11β-HSD1 (HTRF cortisol assay); type: biochemical; settings: human 11β-HSD1, cortisone 5 μM substrate, 37° C. 2 hours
Method: Evaluation Method of 11β-HSD1 Inhibitor (Evaluation of Compound Against Human 11β-HSD1)
(§1) After preincubating an inhibitor in a reaction solution consisting of 50 mM sodium phosphate buffer (pH 7.6), bovine serum albumin (1 mg/mL), NADPH (0.42 mg/mL), glucose-6-phosphate (1.26 mg/mL), glucose-6-phosphate dehydrogenase and an enzyme at room temperature for 30 minutes, cortisone (5 μM) which is a substrate was added (total amount 10 μL). After reacting at 37° C. for 2 hours, an XL-665-labeled cortisol solution (5 μL), and a Cryptate-labeled anti-cortisol antibody solution (5 μL) were added, a reaction was performed at room temperature for 2 hours, and fluorescence intensity (HTRF method) was measured. A cortisol concentration was calculated from a standard curve prepared using a known concentration of cortisol for each assay.
(§2) Taking a concentration of cortisol generated in the absence of the inhibitor as a control value, 50% inhibitory concentration (IC50 value) of the inhibitor against 11β-HSD1 was calculated from an inhibition curve plotting inhibition rate against the control value at each concentration of an inhibitor.

[2] = biological target: Mouse 11β-HSD 1 (Mus musculus, UniProt P50172); assay: Evaluation of compound against mouse 11β-HSD1 (HTRF corticosterone assay); type: biochemical; settings: mouse 11β-HSD1, 11-dehydrocorticosterone 2 μM substrate, 37° C. 2 hours
Method: Evaluation Method of 11β-HSD1 Inhibitor (Evaluation of Compound Against Mouse 11β-HSD 1)
as §1, with “glucose-6-phosphate dehydrogenase,” for “glucose-6-phosphate dehydrogenase”, “minutes, 11-dehydrocorticosterone (2” for “minutes, cortisone (5”, “A corticosterone” for “A cortisol”, “of corticosterone” for “of cortisol”
as §2, with “of corticosterone” for “of cortisol”, “of the” for “of an”

Sequence of Mouse 11β-HSD 1 (P50172 whole entry): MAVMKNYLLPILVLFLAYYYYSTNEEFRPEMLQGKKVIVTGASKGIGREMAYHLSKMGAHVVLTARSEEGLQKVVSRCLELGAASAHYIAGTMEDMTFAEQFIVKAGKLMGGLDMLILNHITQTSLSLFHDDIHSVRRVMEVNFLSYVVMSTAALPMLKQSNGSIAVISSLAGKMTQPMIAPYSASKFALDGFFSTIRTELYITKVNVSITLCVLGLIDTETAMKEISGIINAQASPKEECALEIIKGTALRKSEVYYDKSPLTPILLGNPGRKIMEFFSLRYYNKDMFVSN
Sequence of Human 11β-HSD1 (P28845 whole entry): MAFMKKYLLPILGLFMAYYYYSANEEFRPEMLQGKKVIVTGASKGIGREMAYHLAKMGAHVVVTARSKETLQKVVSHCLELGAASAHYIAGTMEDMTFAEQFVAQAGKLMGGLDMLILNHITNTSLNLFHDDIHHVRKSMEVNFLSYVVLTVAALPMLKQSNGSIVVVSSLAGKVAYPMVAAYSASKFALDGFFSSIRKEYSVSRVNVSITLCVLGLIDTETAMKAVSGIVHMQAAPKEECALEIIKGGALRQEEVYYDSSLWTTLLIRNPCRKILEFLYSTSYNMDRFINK

| IC50 [1] [µM] | IC50 [2] [µM] | SMILES |
| --- | --- | --- |
| 0.19 | 1.49 | CN(C1=NC(=O)C2CCCCCC2S1)C(C)(C)C (stereo not drawn) [Compound I-158] |
| 0.011 | 1.64 | CCN(C1=NC(=O)C2CC(C)(C)CCC2S1)N1CCCCCC1 (stereo not drawn) [Compound I-195] |
| 0.032 | 0.82 | CCN(C1=NC(=O)C2CC(C)(C)CCC2S1)c1ccccc1C(C)(C)C (stereo not drawn) [Compound I-175] |
